Measurements taken from patent US10351570B2, “Compounds and uses thereof” (Kala Pharmaceuticals, Inc., priority 2013, dated 2019).
Read-outs that look alike come from different tables or passages of the source.

Assays:
[1] = Milling with Pluronic F127 into mucus penetrating particles; particle size by dynamic light scattering; assay type: physicochemical; conditions: formulated as MPP, milled with Pluronic F127 in DPBS; for Particle Size: dynamic light scattering
Source text: Compounds of the present invention synthesized in accordance with the preceding Examples were formulated as mucus penetrating particles (MPP). Specifically, compounds I-2, compound I-5, and compound I-6 were each milled in the presence of Pluronic F127 (F127) to determine whether F127 1) aids particle size reduction to several hundreds of nanometers and 2) physically (non-covalently) coats the surface of generated nanoparticles with a mucoinert coating that would minimize particle interactions with mucus constituents and prevent mucus adhesion.
A milling procedure was employed in which an aqueous dispersion containing coarse drug particles and Pluronic F127 (F127) was milled with grinding medium until particle size was reduced below 400 nm as measured by dynamic light scattering. Table 4 lists the size of particles and polydispersity index (a measure of the width of the particle size distribution) generated using this technique. In this example suspensions were buffered using DPBS (Dulbecco's Phosphate-Buffered Saline) which yields a suspension that is both isotonic and has a physiologically relevant pH.

[2] = Draize-Ocular Irritation assessment; assay type: in vivo, Dutch-belted rabbits; conditions: topical 0.5% solution, 50 μL BID 5 days
Experimental: (§1) In this example, the formulation consisted of 0.5% I-2, 0.5% F127, in 20 mM citrate buffer pH 6.0 and NaCl (added to produce isotonic formulation).
(§2) The portion of the retina and choroid collected and analyzed was an 8-mm round punch where the macula is located in humans.

[3] = PK study after topical ocular administration of compound I-2 solution; assay type: in vivo, Dutch-belted rabbits; conditions: Dutch-belted, rabbit, topical or ocular, 50 μL of 0.5% solution, topical 0.5% solution, 50 μL BID 5 days; for AUC(0-t): read-out: AUC0-12 hr
Experimental: as §1, §2

[4] = Physical and chemical stability of I-2 solutions at room temperature; assay type: physicochemical; conditions: F127 (0.5%), 20 mM Tris (pH 8); precipitation
Experimental: Solutions of I-2 were formulated with F127 or Tween 80, and under a range of pH values. Briefly, I-2 was first completely solubilized using an acidic solution (0.1 N HCl) at a high concentration of […]. The final formulation was diluted to a solution consisting of 0.5% (w/v) I-2 into buffered solution containing F127 or Tween 80 as described in Table 5. Following dilution, the pH of the formulations was measured using pH indicator strips (PEHANON) and confirmed to be within expected range (±0.5 units of target pH).
Physical and chemical stability of the solutions at room temperature (20-25° C.) were assessed after 7-10 days (tfinal). Physical instability in a solution can manifest as the precipitation and sedimentation of the drug of interest and excipients over time. To assess physical stability, the formulations at tfinal were first filtered through a 300 kDa modified polyethersulfone filter membrane (Nanosep) to remove any precipitate in the solution. The concentration of I-2 in the filtrates was then measured and compared to that at t=0. The purity of I-2 in the unfiltered solution was also evaluated at tfinal, to further confirm chemical stability. This parameter is defined by the area under the signal peak that is attributed to compound I-2 as a percentage of all peaks reported by in the sample by HPLC (% peak area).

[5] = Nanoparticle mobility in human cervicovaginal mucus (dark field microscopy); conditions: low pH of CVM
Experimental: In order to determine whether the generated nanoparticles have reduced interactions with mucins and are therefore able to move within mucus without becoming trapped, particles were incubated with human cervicovaginal mucus (CVM) and observed via dark field microscopy. In a typical experiment, 51 μL of the nanoparticle suspension was added to 20 μl of CVM. Observations were made in a minimum of three distinct and randomly selected areas of the CVM sample. Control particles with known behavior were used to qualify the CVM sample as appropriate for the assay.

Polydispersity Index (PDI) [1]	Particle Size [1] [nm]	Cmax ([3]; Choroid (8-mm punch)) [nM]	Tmax ([3]; Choroid (8-mm punch)) [h]	AUC(0-t) ([3]; Choroid (8-mm punch)) [µM·h]	Cmax ([3]; Plasma) [nM]	Tmax ([3]; Plasma) [h]	AUC(0-t) ([3]; Plasma) [µM·h]	half-life ([3]; Plasma, read-out: t½ (converted)) [h]	Cmax ([3]; Retina (8-mm punch)) [nM]	Tmax ([3]; Retina (8-mm punch)) [h]	AUC(0-t) ([3]; Retina (8-mm punch)) [µM·h]	physical stability of solution [4]	solubility in CVM [5]	SMILES	Draize-Ocular Irritation [2]
0.160	276													Cc1cc(C(=O)Nc2cc(Oc3ccc4nc(NC(=O)NC5COC5)cn4n3)ccc2C)n(C)n1 [Compound I-5]	
0.206	245													Cc1ccc(Oc2ccc3nc(NC(=O)CC4COC4)cn3n2)cc1NC(=O)c1cccc(F)c1 [Compound I-6]	
		1790	2	12.5	5.96	0.5	0.0256	3.63	218	0.5	2.06	major physical instability	soluble	Cc1cc(C(=O)Nc2cc(Oc3ccc4nc(NC(=O)CN5CC[C@H](N(C)C)C5)cn4n3)ccc2C)n(C)n1 [Compound I-2]	no irritation
